# Results from patent US20240229063A1, “TRANSGENIC CORN EVENT ZM_CSM63715 AND METHODS FOR DETECTION AND USES THEREOF” (Monsanto Technology LLC, priority 2022, published 2024).
# Test system: Cas 12a gRNA target sites on Zea mays B73 chromosome 8
# Experiment: gRNA target site editing rate by Fragment Length Analysis in stably transformed corn plants
# Format: in vivo
# Settings: LbCas12a; for Number of Plants with Target Site Edits: stably transformed corn plants
# Excerpt: Agrobacterium T-DNA vectors were designed to evaluate gRNA and LbCas12a nuclease mediated cleavage at the selected target sites. Each T-DNA vector comprised 3 cassettes. The first cassette comprised a plant codon optimized LbCas12a (SEQ ID NO:33) flanked by the same nuclear localization signal sequence (NLS) at the 5′ and 3′ ends (SEQ ID:191), and was operably linked to Zea mays Ubiquitin promoter (SEQ ID NO:192) and a 3′UTR sequence from a rice lipid transfer protein (LTP) gene (SEQ ID NO:193). The second cassette was a unique gRNA cassette targeting one of the 17 targeting sites described in Table 5. The cassette comprised a Zea mays Pol III promoter operably linked to a Cas12a gRNA unit. […] The third cassette was an EPSPS expression cassette encoding a 5-enolpyruvylshikimate-3-phosphate synthase as a selectable marker for selecting transformants in the present of glyphosate.
# Corn embryo explants were transformed with the vectors described above by Agrobacterium-mediated transformation. Transformed plants were selected on glyphosate. Leaf samples from regenerated plantlets were harvested, and genomic DNA was extracted for Fragment Length Analysis (FLA). […] The amplicon fragment lengths were subsequently analyzed using capillary electrophoresis, and compared to a wildtype amplicon to identify mutants that had larger or smaller amplicons due to the presence of indels. […] One μl of the PCR product was combined with 0.5 μl of the GeneScan 1200 LIZ Size Standard (Thermo Fisher, MA), 8.5 μl of formamide, and ran on ABI3730 sequencer (Thermo Fisher, MA) to detect amplicon size and analyzed for fragment length variation to identify plants with mutations at the target sites. […] NA denotes that a transformation was performed, but was not successful. gRNA activity was determined by calculating the percentage of plants that contained a target site indel edit out of the total number of plants examined.
Substance,Number of Plants with Target Site Edits,Target Editing Rate (percentage of plants with a target site indel edit out of plants examined) [%]
"ZmTS10: LbCas12a gRNA targeting site ZmTS10 (target SEQ ID NO 183, spacer SEQ ID NO 204) (guide CCACAAGGCTATTCACTCCCTAT; gRNA scaffold not given here)",32,
"ZmTS1: LbCas12a gRNA targeting site ZmTS1 (target SEQ ID NO 174, spacer SEQ ID NO 195) (guide ACCGACTTGGGCATATATTATTT; gRNA scaffold not given here)",16,11
